In the NIST ThermoML archive (doi:10.1016/j.jct.2007.05.011):

Assay: xn = mol fraction of the nth substance listed
Details: 101 kPa, Liquid; for mass density: Vibrating tube method

NCCO.O=CO [2-hydroxyethylammonium formate] + CO
Details	mass density [kg/m3]	speed of sound [m/s]
288.15 K, x2 = 0	1183.57	1733.9
288.15 K, x2 = 0.055	1176.05	1744.5
288.15 K, x2 = 0.098	1169.59	1733.2
288.15 K, x2 = 0.193	1153.03	1703.2
288.15 K, x2 = 0.296	1132.54	1666.2
288.15 K, x2 = 0.399	1108.24	1623.5
288.15 K, x2 = 0.5	1079.69	1573.6
288.15 K, x2 = 0.598	1046.63	1516.4
288.15 K, x2 = 0.701	1005.33	1448.4
288.15 K, x2 = 0.799	953.96	1365.8
288.15 K, x2 = 0.9	887.02	1265.2
288.15 K, x2 = 0.951	844.491	1203.6
290.65 K, x2 = 0	1181.81	1727.4
290.65 K, x2 = 0.055	1174.4	1739.2
290.65 K, x2 = 0.098	1167.93	1727.9
290.65 K, x2 = 0.193	1151.34	1697.7
290.65 K, x2 = 0.296	1130.83	1660.7
290.65 K, x2 = 0.399	1106.5	1617.8
290.65 K, x2 = 0.5	1077.9	1567.7
290.65 K, x2 = 0.598	1044.79	1510.3
290.65 K, x2 = 0.701	1003.42	1441.8
290.65 K, x2 = 0.799	951.962	1358.8
290.65 K, x2 = 0.9	884.894	1257.6
290.65 K, x2 = 0.951	842.26	1195.6
293.15 K, x2 = 0	1180.04	1721.3
293.15 K, x2 = 0.055	1172.74	1734
293.15 K, x2 = 0.098	1166.26	1722.6
293.15 K, x2 = 0.193	1149.65	1692.4
293.15 K, x2 = 0.296	1129.11	1655.3
293.15 K, x2 = 0.399	1104.75	1612.1
293.15 K, x2 = 0.5	1076.11	1561.8
293.15 K, x2 = 0.598	1042.95	1504.3
293.15 K, x2 = 0.701	1001.51	1435.3
293.15 K, x2 = 0.799	949.965	1351.9
293.15 K, x2 = 0.9	882.765	1250.2
293.15 K, x2 = 0.951	840.027	1187.8
295.65 K, x2 = 0	1178.27	1715.1
295.65 K, x2 = 0.055	1171.09	1728.8
295.65 K, x2 = 0.098	1164.6	1717.4
295.65 K, x2 = 0.193	1147.97	1687
295.65 K, x2 = 0.296	1127.4	1649.9
295.65 K, x2 = 0.399	1103	1606.5
295.65 K, x2 = 0.5	1074.32	1556
295.65 K, x2 = 0.598	1041.11	1498.2
295.65 K, x2 = 0.701	999.603	1428.8
295.65 K, x2 = 0.799	947.967	1345.1
295.65 K, x2 = 0.9	880.636	1242.7
295.65 K, x2 = 0.951	837.792	1180
298.15 K, x2 = 0	1176.49	1709
298.15 K, x2 = 0.055	1169.43	1723.6
298.15 K, x2 = 0.098	1162.94	1712.1
298.15 K, x2 = 0.193	1146.28	1681.7
298.15 K, x2 = 0.296	1125.68	1644.5
298.15 K, x2 = 0.399	1101.26	1600.9
298.15 K, x2 = 0.5	1072.54	1550.2
298.15 K, x2 = 0.598	1039.27	1492.1
298.15 K, x2 = 0.701	997.697	1422.3
298.15 K, x2 = 0.799	945.97	1338.3
298.15 K, x2 = 0.9	878.505	1235.3
298.15 K, x2 = 0.951	835.555	1172.1
300.65 K, x2 = 0	1174.71	1702.9
300.65 K, x2 = 0.055	1167.77	1718.4
300.65 K, x2 = 0.098	1161.28	1706.9
300.65 K, x2 = 0.193	1144.6	1676.4
300.65 K, x2 = 0.296	1123.97	1639
300.65 K, x2 = 0.399	1099.51	1595.3
300.65 K, x2 = 0.5	1070.75	1544.4
300.65 K, x2 = 0.598	1037.43	1486.1
300.65 K, x2 = 0.701	995.792	1415.9
300.65 K, x2 = 0.799	943.973	1331.5
300.65 K, x2 = 0.9	876.371	1227.9
300.65 K, x2 = 0.951	833.316	1164.4
303.15 K, x2 = 0	1172.94	1696.8
303.15 K, x2 = 0.055	1166.12	1713.2
303.15 K, x2 = 0.098	1159.62	1701.7
303.15 K, x2 = 0.193	1142.91	1671.1
303.15 K, x2 = 0.296	1122.26	1633.6
303.15 K, x2 = 0.399	1097.77	1589.7
303.15 K, x2 = 0.5	1068.96	1538.6
303.15 K, x2 = 0.598	1035.59	1480
303.15 K, x2 = 0.701	993.884	1409.5
303.15 K, x2 = 0.799	941.97	1324.7
303.15 K, x2 = 0.9	874.236	1220.6
303.15 K, x2 = 0.951	831.073	1156.6
305.65 K, x2 = 0	1171.16	1690.8
305.65 K, x2 = 0.055	1164.47	1708.1
305.65 K, x2 = 0.098	1157.95	1696.5
305.65 K, x2 = 0.193	1141.23	1665.8
305.65 K, x2 = 0.296	1120.55	1628.2
305.65 K, x2 = 0.399	1096.02	1584.1
305.65 K, x2 = 0.5	1067.17	1532.8
305.65 K, x2 = 0.598	1033.75	1474
305.65 K, x2 = 0.701	991.972	1403.2
305.65 K, x2 = 0.799	939.967	1318
305.65 K, x2 = 0.9	872.095	1213.2
305.65 K, x2 = 0.951	828.823	1148.9
308.15 K, x2 = 0	1169.39	1684.8
308.15 K, x2 = 0.055	1162.82	1702.9
308.15 K, x2 = 0.098	1156.3	1691.3
308.15 K, x2 = 0.193	1139.55	1660.5
308.15 K, x2 = 0.296	1118.84	1622.8
308.15 K, x2 = 0.399	1094.27	1578.5
308.15 K, x2 = 0.5	1065.38	1527.1
308.15 K, x2 = 0.598	1031.9	1468
308.15 K, x2 = 0.701	990.06	1396.8
308.15 K, x2 = 0.799	937.959	1311.2
308.15 K, x2 = 0.9	869.95	1206
308.15 K, x2 = 0.951	826.572	1141.2
310.65 K, x2 = 0	1167.62	1678.7
310.65 K, x2 = 0.055	1161.16	1697.8
310.65 K, x2 = 0.098	1154.64	1686.1
310.65 K, x2 = 0.193	1137.87	1655.3
310.65 K, x2 = 0.296	1117.13	1617.4
310.65 K, x2 = 0.399	1092.53	1573
310.65 K, x2 = 0.5	1063.59	1521.4
310.65 K, x2 = 0.598	1030.06	1462
310.65 K, x2 = 0.701	988.146	1390.5
310.65 K, x2 = 0.799	935.95	1304.5
310.65 K, x2 = 0.9	867.803	1198.7
310.65 K, x2 = 0.951	824.316	1133.6
313.15 K, x2 = 0	1165.84	1672.7
313.15 K, x2 = 0.055	1159.51	1692.7
313.15 K, x2 = 0.098	1152.98	1681
313.15 K, x2 = 0.193	1136.19	1650
313.15 K, x2 = 0.296	1115.42	1612
313.15 K, x2 = 0.399	1090.78	1567.5
313.15 K, x2 = 0.5	1061.81	1515.6
313.15 K, x2 = 0.598	1028.22	1456
313.15 K, x2 = 0.701	986.228	1384.2
313.15 K, x2 = 0.799	933.936	1297.8
313.15 K, x2 = 0.9	865.647	1191.4
313.15 K, x2 = 0.951	822.053	1125.9
315.65 K, x2 = 0	1164.06	1666.7
315.65 K, x2 = 0.055	1157.86	1687.6
315.65 K, x2 = 0.098	1151.33	1675.8
315.65 K, x2 = 0.193	1134.51	1644.8
315.65 K, x2 = 0.296	1113.71	1606.7
315.65 K, x2 = 0.399	1089.03	1561.9
315.65 K, x2 = 0.5	1060.02	1509.9
315.65 K, x2 = 0.598	1026.37	1450.1
315.65 K, x2 = 0.701	984.31	1377.9
315.65 K, x2 = 0.799	931.919	1291.2
315.65 K, x2 = 0.9	863.489	1184.2
315.65 K, x2 = 0.951	819.788	1118.4
318.15 K, x2 = 0	1162.29	1660.8
318.15 K, x2 = 0.055	1156.21	1682.5
318.15 K, x2 = 0.098	1149.67	1670.7
318.15 K, x2 = 0.193	1132.83	1639.5
318.15 K, x2 = 0.296	1112	1601.3
318.15 K, x2 = 0.399	1087.29	1556.4
318.15 K, x2 = 0.5	1058.22	1504.2
318.15 K, x2 = 0.598	1024.52	1444.2
318.15 K, x2 = 0.701	982.388	1371.7
318.15 K, x2 = 0.799	929.9	1284.6
318.15 K, x2 = 0.9	861.326	1177.1
318.15 K, x2 = 0.951	817.518	1110.9
320.65 K, x2 = 0	1160.51	1654.8
320.65 K, x2 = 0.055	1154.57	1677.4
320.65 K, x2 = 0.098	1148.03	1665.5
320.65 K, x2 = 0.193	1131.15	1634.3
320.65 K, x2 = 0.296	1110.29	1596
320.65 K, x2 = 0.399	1085.54	1550.9
320.65 K, x2 = 0.5	1056.43	1498.5
320.65 K, x2 = 0.598	1022.67	1438.3
320.65 K, x2 = 0.701	980.467	1365.5
320.65 K, x2 = 0.799	927.874	1278
320.65 K, x2 = 0.9	859.158	1170
320.65 K, x2 = 0.951	815.245	1103.5
323.15 K, x2 = 0	1158.73	1648.9
323.15 K, x2 = 0.055	1152.94	1672.4
323.15 K, x2 = 0.098	1146.39	1660.5
323.15 K, x2 = 0.193	1129.49	1629.2
323.15 K, x2 = 0.296	1108.59	1590.7
323.15 K, x2 = 0.399	1083.8	1545.5
323.15 K, x2 = 0.5	1054.64	1492.9
323.15 K, x2 = 0.598	1020.83	1432.5
323.15 K, x2 = 0.701	978.549	1359.5
323.15 K, x2 = 0.799	925.853	1271.4
323.15 K, x2 = 0.9	856.995	1163
323.15 K, x2 = 0.951	812.98	1096.1
